Results reported in ChEMBL document CHEMBL1129378, “Octanol-, chloroform-, and propylene glycol dipelargonat-water partitioning of morphine-6-glucuronide and other related opiates” (J Med Chem, 1996).

Tests used:
physchem [1] = assay: physchem
Description: Sugar COOH pKa of compound

physchem [2] = conditions: octanol/water
Description: Partition coefficient of anion (logD)

physchem [3] = conditions: buffer, pH 7.4
Description: Log D of compound; LogD at pH 7.4

physchem [4] = conditions: octanol/water; remark: listed apart in the source
Description: (§1) Partition coefficient of Zwitterion (logD)

physchem [5] = assay: physchem; remark: listed apart in the source
physchem [6] = assay: physchem; remark: listed apart in the source
[7] = octanol/water
Description: Partition coefficient of cation (logD)

[8] = Phenolic pKa of compound with […] NaCl; type: physicochemical
[9] = octanol/water; remark: listed apart in the source
Description: as §1

[10] = Log D of compound (Chloroform water medium); type: physicochemical; conditions: buffer
[11] = Partition coefficient (logP) (chloroform); type: physicochemical
[12] = Partition coefficient (logD) of Zwitterion (chloroform/water); type: physicochemical
[13] = Partition coefficient (logD) of anion (chloroform/water); type: physicochemical

| SMILES | logD (physchem [2]) | logD (physchem [3]) | logD (physchem [4]) | pKa (physchem [5]) | logD [7] | other results |
| --- | --- | --- | --- | --- | --- | --- |
| Cc1cc(=O)oc2cc(O[C@@H]3O[C@H](C(=O)O)[C@@H](O)[C@H](O)[C@H]3O)ccc12 | -1.3 | -1.32 | -0.39 |  |  | pKa (physchem [1]): 2.82 |
| CC(=O)O[C@H]1C=C[C@H]2[C@H]3Cc4ccc(O)c5c4[C@@]2(CCN3C)[C@H]1O5 | -0.42 | 0.61 | 1.55 | 8.19 | < -2 | pKa (physchem [6]): 9.55 |
| CO[C@]12CC[C@@]3(C[C@@H]1[C@](C)(O)C(C)(C)C)[C@H]1Cc4ccc(O)c5c4[C@@]3(CCN1CC1CC1)[C@H]2O5 [BUPRENORPHINE] | 3.24 | 3.93 |  | 8.31 | 0.45 | pKa [8]: 9.62 |
| COc1ccc2c3c1O[C@H]1[C@@H](O)C=C[C@H]4[C@@H](C2)N(C)CC[C@@]341 [CODEINE] |  | 0.22 |  |  | < -2 | logD [9]: 1.19 |
| CC(=O)Oc1ccc2c3c1O[C@H]1[C@@H](OC(C)=O)C=C[C@H]4[C@@H](C2)N(C)CC[C@@]341 [DIACETYLMORPHINE] |  | 0.85 | 1.58 |  | -0.94 |  |
| CN1CC[C@]23c4c5ccc(O[C@@H]6O[C@H](C(=O)O)[C@@H](O)[C@H](O)[C@H]6O)c4O[C@H]2[C@@H](O)C=C[C@H]3[C@H]1C5 [MORPHINE 3-GLUCURONIDE] | -1.45 | -1.12 | -1.1 |  | < -2 | logD [10]: -1.18; logP [11]: -1.12; logD [12]: -1.12; logD [13]: < -2 |
| CN1CC[C@]23c4c5ccc(O)c4O[C@H]2[C@@H](O[C@@H]2O[C@H](C(=O)O)[C@@H](O)[C@H](O)[C@H]2O)C=C[C@H]3[C@H]1C5 [MORPHINE GLUCURONIDE] |  |  |  |  |  | pKa (physchem [6]): 9.42 |
| COc1ccc2c3c1O[C@H]1[C@@H](O)C=C[C@H]4[C@@H](C2)NCC[C@@]341 [NORCODEINE] | < -2 | -1.26 | 0.69 | 9.23 | < -2 |  |
